Measured values from patent publication US10292972B1, “Pharmaceutical composition for treating cancer and a method thereof” (King Abdulaziz University, priority 2017, dated 2019).

Legend:
Type in all cases: cell-based, human
[1] = test system: MCF7 breast cancer cells; assay: Hoechst 33342 staining of nuclear morphological changes (apoptosis); details: MCF7, 150 μM, 24 hrs, FIG. 3B
Procedure: MCF7 cells (2×10^4 cells/well) were treated with 3 μM, 30 μM, 300 μM, 600 μM, 1.5 mM of isopicrinine at 37° C. in a humidified incubator with 5% CO2 for 20 hrs. After the drug treatment, cells were analysed under phase contrast microscope. Cytotoxicity was detected at 300 μM concentration onwards in all the samples. […] The nuclear morphological changes, which are mainly associated with apoptosis were analysed by Hoechst 33342 staining. Briefly, MCF7 cells (2×10^4 cells/well) were grown on coverslips and treated with 150 μM of purified alkaloid for 24 hrs. The cells were washed with Dulbecco's phosphate buffer saline (DPBS) and fixed with 100% methanol for 15 min at room temperature. Cells were washed with DPBS and stained with Hoechst 33342 for 15 min at room temperature. The cells were washed thrice with DPBS and analysed under fluorescent microscope (Nikon, Japan).

[2] = test system: MCF7 breast cancer cells; assay: RNA-Seq gene expression profiling of isopicrinine-treated MCF7 cells; details: MCF7, 30 μM and 150 μM
[3] = test system: MCF7 breast cancer cells; assay: cells
Procedure: MCF7, a breast cancer cell line was procured from the American Type Culture Collection (ATCC) and propagated in Dulbecco's Modified Eagle's medium (DMEM) supplemented with 10% (v/v) fetal bovine serum (FBS), 100 μg/ml streptomycin and 100 U/ml penicillin at 37° C. in a humidified incubator with 5% CO2. Human pancreatic cell lines, AsPC1 and PANC1, were obtained from the American Type Culture Collection (ATCC). AsPC1 cell line was grown in RPMI-1640 medium supplemented with 10% (v/v) fetal bovine serum (FBS), 100 μg/ml streptomycin and 100 U/ml penicillin. PANC1 cell line was cultured in DMEM supplemented with 10% (v/v) fetal bovine serum (FBS), 100 μg/ml streptomycin and 100 U/ml penicillin.
MCF7 cells (2×10^4 cells/well) were sub-cultured in 24-well plate and incubated at 37° C. in a humidified incubator with 5% CO2 for 20 hrs. […] After the drug treatment, cells were analysed under phase contrast microscope. […]
MCF7 cells (2×10^4 cells/well) were treated with 3 μM, 30 μM, 300 μM, 600 μM, 1.5 mM of isopicrinine at 37° C. in a humidified incubator with 5% CO2 for 20 hrs. After the drug treatment, cells were analysed under phase contrast microscope. Cytotoxicity was detected at 300 μM concentration onwards in all the samples. […] The nuclear morphological changes, which are mainly associated with apoptosis were analysed by Hoechst 33342 staining. […]

[4] = test system: MCF7 breast cancer cells; assay: RNA-Seq gene expression profiling of isopicrinine-treated MCF7 cells; details: for number of upregulated genes / number of downregulated genes: vs DMSO-treated control, P value <0.05; for number of downregulated genes: fold change <−1
Procedure: MCF7 cells (1.6×10^5 cells) were treated with varying doses (sub-lethal) of purified isopicrinine i.e., 30 μM and 150 μM, in triplicates, for 18 hrs at 37° C. Total RNA was extracted using TRIzol reagent. Gene expression analyses of drug-treated MCF7 cells in the presence of sub-lethal concentrations of isopicrinine were performed using Illumina HiSeq. Each RNA was ribo-depleted (Ribo-Zero, Epicentre) prior to cDNA libarary preparation (ScriptSeq epicenter). Each cDNA was separately barcode tagged during library preparation, and sequenced in multiplex generating approximately >40 million 100 bp reads per sample for the mammalian cell line. The Illumina reads were mapped to their respective assembled reference transcriptome sequence using the mapping software TopHat and Cufflinks (Trapnell, C., Pachter, L., Salzberg, S. L. 2009. TopHat: discovering splice junctions with RNA-Seq. Bioinformatics, May 1; 25(9):1105-11. doi: 10.1093/bioinformatics/btp120, incorporated herein by reference in its entirety). Illumina read abundances mapping to each reference contig was normalized using the RPKM (reads per Kb per million reads) calculation. Differentially expressed transcripts were identified and functionally annotated using a variety of statistical analyses available via bioconductor in R language (Durinck, S., Moreau, Y., Kasprzyk, A., Davis, S., De Moor, B., Brazma, A., Huber, W. 2005. BioMart and Bioconductor: a powerful link between biological databases and microarray data analysis. Bioinformatics, 21(16), 3439-3440. doi: 10.1093/bioinformatics/bti525, incorporated herein by reference in its entirety). Clusters of differentially expressed and cycling transcripts were annotated to identify over-represented GO/KEGG pathways (Kanehisa, M., Goto, S., Sato, Y., Furumichi, M., Tanabe, M., 2012. KEGG for integration and interpretation of large-scale molecular data sets. Nucleic Acids Res., 40 (Database issue), D109-14. doi: 10.1093/nar/gkr988, incorporated herein by reference in its entirety).
MCF7 cell line was treated with sub-lethal doses of 30 μM and 150 μM of isopicrinine. […] RNA-Seq transcription profiling was performed for analyzing the transcriptome profile in alkaloid treated MCF7 cells in order to evaluate the pharmacological effects of the new alkaloid isolated from Rhazya stricta. To identify the differentially regulated/expressed genes after treatment with isopicrinine, RNA was extracted from alkaloid treated MCF7 cells (30 μM and 150 μM doses) and DMSO-treated control cells and RNA-Seq experiment was carried out. The sequencing data were compared and analyzed to identify the differentially expressed genes in mammalian cells after treatment with isopicrinine.

[5] = MCF7, vs DMSO control, Cell divsion, dose not given
[6] = MCF7, vs DMSO control, Chromosone Organization, dose not given
[7] = MCF7, vs DMSO control, Cytoskeleton, dose not given

Q: For `C/C=C1\CN2[C@H]3C[C@@H]1[C@@H](C(=O)OC)[C@]14C[C@H]2O[C@]31Nc1ccccc14` [isopicrinine], which “nuclear morphology, Hoechst 33342 staining” value [1] is on record?
A: The value was “chromatin condensation and nuclear fragmentation”.

Q: What about the “cell proliferation at low doses compared to DMSO control” value [2] of the same compound?
A: Its value is “prevented further cell proliferation”.

Q: What about the IC50 ([3]; Homo sapiens, MCF7, 20 h, read-out: IC50 value (cytotoxic activity against MCF7 cells)) of the same compound?
A: Its IC50 is 240 µM.

Q: What about the “cell morphology after treatment with high doses” value ([3]; MCF7, FIGS. 2D-2F (300, 600, 1,500 μM)) of the same compound?
A: Its value is “cell shrinkage, cellular detachment and loss of adherent morphology”.

Q: And the “expression of Mxi1 gene” value ([4]; MCF7)?
A: Its value is “significantly upregulated”.

Q: What about the “expression of cell cycle and cell proliferation genes (CDC6, CDK1, CDCA5, DLGAP5, NUSAP1, KIF23, PRC1, BIRC5, AURKB, NDC80, CDC45)” value ([4]; MCF7, 30 μM) of the same compound?
A: The value was “not affected”.

Q: What about the “cytotoxicity at sub-lethal doses” value ([4]; MCF7, 30 μM and 150 μM, 18 hrs) of the same compound?
A: The value was “No cytotoxicity was detected”.

Q: What about the “number of upregulated genes” value ([4]; MCF7, 30 μM) of the same compound?
A: The value was 148 genes.

Q: What about the “number of downregulated genes” value ([4]; MCF7, 30 μM) of the same compound?
A: Its value is 64 genes.

Q: And the “expression of cell cycle and cell proliferation genes (CDC6, CDK1, CDCA5, DLGAP5, NUSAP1, KIF23, PRC1, BIRC5, AURKB, NDC80, CDC45)” value ([4]; MCF7, 150 μM)?
A: The value was “significantly downregulated”.

Q: And the “number of downregulated genes” value ([4]; MCF7, 150 μM)?
A: Its value is 59 genes.

Q: What about the “number of upregulated genes” value ([4]; MCF7, 150 μM, fold change >1) of the same compound?
A: The value was 36 genes.

Q: What about the “expression of cell division and mitosis genes (PTTG1, DLGAP5, Cdc6, NDC80, KIF15, KIF23, PRC1, NUSAP1, Aurora B kinase, CDCA5, ATAD2)” value ([4]; MCF7, high dose) of the same compound?
A: The value was “downregulated”.

Q: What about the “expression of pro-apoptotic gene PUMA (BBC3)” value ([4]; MCF7, sub-lethal dose, FIG. 5) of the same compound?
A: The value was “upregulated”.

Q: What about the “expression of survivin (BIRC5)” value ([4]; MCF7, sub-lethal doses) of the same compound?
A: Its value is “Downregulation”.

Q: What about the “log2 (fold change) ASPM” value [4, 5] of the same compound?
A: Its value is −1.3045.

Q: And the “log2 (fold change) AURKB” value [4, 5]?
A: Its value is −1.646.

Q: And the “log2 (fold change) BIRC5” value [4, 5]?
A: The value was −0.9572.

Q: What about the “log2 (fold change) CDC6” value [4, 5] of the same compound?
A: Its value is −2.322.

Q: What about the “log2 (fold change) CDCA5” value [4, 5] of the same compound?
A: The value was −1.551.

Q: What about the “log2 (fold change) CDK1” value [4, 5] of the same compound?
A: Its value is −1.149.

Q: And the “log2 (fold change) FBXO5” value [4, 5]?
A: Its value is −1.067.

Q: And the “log2 (fold change) KIF23” value [4, 5]?
A: The value was −0.905.

Q: What about the “log2 (fold change) NCAPG” value [4, 5] of the same compound?
A: Its value is −1.314.

Q: And the “log2 (fold change) NCAPH” value [4, 5]?
A: The value was −1.018.

Q: What about the “log2 (fold change) NDC80” value [4, 5] of the same compound?
A: Its value is −1.343.

Q: What about the “log2 (fold change) NUSAP1” value [4, 5] of the same compound?
A: Its value is −1.539.

Q: What about the “log2 (fold change) PRC1” value [4, 5] of the same compound?
A: Its value is −1.527.

Q: And the “log2 (fold change) PTTG1” value [4, 5]?
A: Its value is −1.05.

Q: What about the “log2 (fold change) SGOL1” value [4, 5] of the same compound?
A: Its value is −1.044.

Q: And the “log2 (fold change) DLGAP5” value [4, 6]?
A: The value was −1.263.

Q: What about the “log2 (fold change) ESPL1” value [4, 6] of the same compound?
A: Its value is −1.9647.

Q: What about the “log2 (fold change) H2AFZ” value [4, 6] of the same compound?
A: Its value is −0.952.

Q: What about the “log2 (fold change) HIST1H1B” value [4, 6] of the same compound?
A: The value was −2.278.

Q: And the “log2 (fold change) HIST1H2AJ, HIST1H2AK” value [4, 6]?
A: Its value is −2.034.

Q: And the “log2 (fold change) HIST1H2AM, HIST1H3J” value [4, 6]?
A: The value was −2.034.

Q: What about the “log2 (fold change) HIST1H2BL” value [4, 6] of the same compound?
A: Its value is −2.032.

Q: And the “log2 (fold change) HIST2H2AA4, HIST2H2AC” value [4, 6]?
A: Its value is −1.505.

Q: And the “log2 (fold change) HIST2H2AB” value [4, 6]?
A: The value was −2.144.

Q: What about the “log2 (fold change) HIST2H2BF” value [4, 6] of the same compound?
A: Its value is −1.757.

Q: And the “log2 (fold change) HIST2H3C” value [4, 6]?
A: Its value is −2.716.

Q: And the “log2 (fold change) HIST2H3PS2” value [4, 6]?
A: Its value is −1.3321.

Q: What about the “log2 (fold change) HIST2H4A” value [4, 6] of the same compound?
A: Its value is −2.138.

Q: And the “log2 (fold change) AGBL2” value [4, 7]?
A: The value was 2.627.

Q: What about the “log2 (fold change) DLG2” value [4, 7] of the same compound?
A: Its value is 2.268.

Q: And the “log2 (fold change) DRP2” value [4, 7]?
A: The value was 2.047.
